In publication PMC3039689, “Identification of Small Molecule Lead Compounds for Visceral Leishmaniasis Using a Novel Ex Vivo Splenic Explant Model System” (PLoS Neglected Tropical Diseases, 2011):
Like-named read-outs stand apart in the source and are kept apart here.

How the values were obtained:
[1] = tested on: luciferase-transfected Leishmania donovani; assay: Anti-leishmanial efficacy (EC50) in the ex vivo splenic explant model; type: cell-based
Procedure: To establish the plate assay for drug screening, the spleens from 2 infected hamsters were aseptically removed and placed in a Petri dish containing 5 mL of Collagenase D (Roche) at 2 mg/mL of buffer (10 mM Hepes pH 7.4, 150 mM NaCl, 5 mM KCl, 1 mM MgCl2, 1.8 mM CaCl2). The spleen was infiltrated by injection with approximately 2 mL of Collagenase solution, the tissue was cut into small pieces using sharp scissors, and incubated for 20 minutes at 37°C. The cell suspension and remaining tissue fragments were gently passed through a 100 µm cell strainer (B–D) to obtain a single cell suspension, which was washed twice by centrifugation (500 g for 7 min at 4°C) and re-suspended in culture medium composed of DMEM (Gibco), 5% FBS, 1 mM Sodium pyruvate (Gibco), 1X MEM amino acids solution (Sigma), 0.02% v/v/EDTA, 10 mM HEPES buffer (Cellgro) and 100 IU/mL Penicillin/100 […] Streptomycin solution (Cellgro).
The anti-leishmanial efficacy of the compounds was determined using the splenic explant model in a 96-well plate format. […] Because variation in the parasite burden between different explant cultures was expected, the concentration of cells used in each experiment was adjusted to give approximately 100 counts by luminometry (equivalent to ∼240,000 parasites). The number of surviving parasites was determined by luminometry as described above.

[2] = tested on: LUC-transfected L. donovani; assay: Anti-leishmanial efficacy (EC50) in in vitro infected peritoneal macrophages; type: cell-based, Leishmania donovani; conditions: 48 h, read-out: Peritoneal Macrophages EC50 (mean±SE)
Procedure: Macrophages from uninfected hamsters were obtained by peritoneal lavage with DMEM (Gibco) and Heparin (2 units/ml; Elkins-Sinn, Cherry Hill NJ). The cells were washed twice by centrifugation and re-suspended in culture medium composed of DMEM, 5% FBS, 1 mM sodium pyruvate (Gibco), 1X MEM amino acids solution (Sigma), 0.02% v/v/EDTA and 10 mM HEPES buffer (Cellgro). The peritoneal macrophages were adjusted to 5×10^5 cells/ml and allowed to adhere overnight at 37°C and 5% CO2 in flat bottom 96-well plates. Adherent macrophages were infected at 1∶5 ratio (cells:parasites) with stationary phase LUC-transfected L. donovani promastigotes and cultured at 37°C, 5% CO2, for 2 h. The extracellular parasites were then removed by washing with warm Dulbeco's PBS (Gibco). Infected macrophages were exposed to 2-fold serial dilutions of test compounds as described above for the ex vivo culture system. The infected macrophages were incubated for 48 hr in 5% CO2 atmosphere at 37°C. The number of surviving parasites was determined by luminometry and the effective concentration (EC50) calculated by linear regression (GraphPad Prism 5.0) as described above for the ex vivo system. The mean and standard error of the EC50 from 3 different experiments were considered as the final EC50. […] Tilorone was obtained from Hangzhou Trylead Chemical Tech (China). All compounds were dissolved in sterile dimethyl sulfoxide (analytical grade, cell culture tested; Sigma) and stored frozen at −20°C until used.

[3] = tested on: luciferase-transfected Leishmania donovani; assay: Primary screening of compound libraries in the ex vivo splenic explant model (Z score); type: cell-based; conditions: 10 µM; for Outcome of library screening (significant Z score / hit): compounds as included in the libraries
Excerpt: The following chemical libraries in 96-well plate format were screened: NINDS Custom Collection II (MicroSource Discovery Systems, Inc.), which consists of 1,040 classical therapeutic agents, established experimental inhibitors, receptor agonist drugs and other bioactive compounds [24], [25], [26]; the Pure Natural Products library (MicroSource Discovery Systems, Inc.) a collection of 800 pure natural products and derivatives; and The Diversity Set and Natural Products set (Developmental Therapeutics Program, NCI/NIH) a set of 2,195 compounds selected from the almost 140,000 compounds based on diversity of structure, [28], [29]. Libraries containing the compounds at 10 mM concentration in DMSO were diluted into master plates at 200 µM concentration in DMEM. The 200 µM master plates were further diluted by transferring an aliquot of 5 µl into a 96-well sterile white-bottom plate (Costar) containing 45 µl of culture medium at 4°C. Splenocytes (100,000 in 50 µl of culture medium) that had been obtained from infected hamsters as described above were added to the assay plate for a final drug concentration of 10 µM. The positive control (splenocytes treated with 0.2 µM Amphotericin B) and negative controls (0.1% DMSO vehicle) were distributed in the two outer columns (8 wells each) of each plate in alternating fashion to minimize any edge effect. After 48 hours of culture at 37°C in a humidified atmosphere and 5% CO2, the plates were centrifuged at 500 g for 7 min, the supernatant discarded using a multi- channel vacuum aspirator (Costar), and 20 µl of 1X cell culture lysis reagent (Promega) was added to the cells. To complete the lysis procedure the plates were frozen at −70°C and then thawed, and the luciferase activity determined in a plate luminometer following addition of 100 µl of the luciferin substrate at room temperature (Promega). The Z score was calculated for each compound as the mean counts of the compound tested minus the mean counts of all compounds in the plate divided by the SD all compounds in the plate. The mean Z score for each drug was calculated based on duplicate screenings performed in two different experiments. A Z score of ≤–1.96, which corresponds to a p value of ≤0.05 (95% confidence limit), was used as the threshold to identify the hits. […] The quality of each assay was determined by calculating the Z prime (Z') factor [31], which measures the discrimination between positive and negative controls in the screen. The Z' factor was calculated as 1 – [(3SD positive controls +3SD negative controls)/absolute value of (mean of the positive controls – mean of the negative controls)].

[4] = Cell toxicity (CC50) in the HepG2 cell line, CellTiter-Glo; type: cell-based, human; conditions: human
Procedure: After 24 hours of culture at 37°C the number of viable cells was determined by quantification of the ATP present in the cell using the CellTiter-Glo luminescent Cell Viability Assay (Promega).

splenocytes [5] = assay: Flow cytometry of propidium iodide stained splenocytes cultured with test compound; conditions: 48 hr culture period, data not shown
splenocytes [6] = tested on: splenocytes
Leishmania donovani = assay: Discrimination between amphotericin B treated and untreated splenic explant cultures at serial dilutions of cells; type: cell-based; conditions: AMB 0.126 µg/mL, 48 h; for Parasite counts, Treated (AMB): mean ± SD; for Reduction in parasite burden: with reference to controls
[7] = Leishmania donovani, 48 h, 48 h of culture, luminometry, purchased compounds dissolved in DMSO, read-out: Ex vivo model EC50 (mean±SE)
[8] = Leishmania donovani, Peritoneal macrophage, hamster peritoneal macrophages infected in vitro, luminometry, purchased compounds
[9] = Leishmania donovani, ex vivo splenic explant, 48 h, luminometry, at least two experiments, compound from screened library, read-out: Ex vivo model EC50 Mean

`N=C(N)c1ccc(OCCCCCOc2ccc(C(=N)N)cc2)cc1` [Pentamidine] gave an EC50 [1, 7] of 3020 ± 340 nM, an EC50 ([1]; Leishmania donovani, Splenocyte, ex vivo splenocytes system, read-out: EC50) of 3000 nM and an EC50 [2, 8] of 890 ± 370 nM. The Z score ([3]; 48 h, duplicate screen, hit threshold -1.96) was −1.87 and the “Outcome of library screening (significant Z score / hit)” value (from here on “Outcome … (significant Z score / hit)”) [3] was “did not show a significant Z score”.

`CCCCCC[C@H]1C(=O)O[C@H](C)[C@H](NC(=O)c2cccc(NC=O)c2O)C(=O)O[C@@H](C)[C@@H]1OC(=O)CC(C)C` [ANTIMYCIN A] gave an EC50 ([1]; Leishmania donovani, 50% reduction in parasite counts in the ex vivo model, read-out: EC50 Mean (Table S2)) of 11600 nM, an EC50 ([1]; Leishmania donovani, 48 h of culture, luminometry, purchased compounds dissolved in DMSO, read-out: Ex vivo model EC50 (mean±SE)) of 1270 ± 1070 nM and an EC50 [1, 9] of 11600 nM. For the same compound, the EC50 ([2]; Leishmania donovani, Peritoneal macrophage, in Mesocricetus auratus) was 1670 ± 1050 nM and the CC50 at 24 h ([4]; HepG2 cell line, 24 h, ATP luminescence, compound from screened library, read-out: HepG2 CC50 Mean) was 58400 nM.

`CCN(CC)C(=S)SSC(=S)N(CC)CC` [Disulfiram] showed an EC50 [1, 7] of 310 ± 30 nM, an EC50 [1, 9] of 8100 nM and an EC50 [2, 8] of 160 ± 30 nM. For the same compound, the CC50 at 24 h [4] was 53000 nM.

With `CCN(CC)CCOc1ccc2c(c1)C(=O)c1cc(OCCN(CC)CC)ccc1-2` [Tilorone] the EC50 [1, 7] was 840 ± 470 nM, the EC50 ([1]; Leishmania donovani, 48 h, ex vivo splenic explant, 48 h, luminometry, at least two experiments, compound from screened library, read-out: Ex vivo model EC50 Mean) was 7700 nM and the Splenocyte viability (splenocytes [5]) was “no loss of splenocyte viability”. For the same compound, the EC50 [2, 8] was 1480 ± 350 nM and the CC50 at 24 h ([4]; HepG2 cells, HepG2 cell line, 24 h, ATP luminescence, compound from screened library, read-out: HepG2 CC50 Mean) was 46800 nM.

Work on `CNCCC=C1c2ccccc2CCc2ccccc21` [Nortriptyline] yielded an EC50 [1, 7] of 6030 ± 280 nM and an EC50 [2, 8] of 2650 ± 350 nM.

For `C[C@@H]1[C@H](O)[C@@H](C)/C=C/C=C/C=C/C=C/C=C/C=C/C=C/[C@H](O[C@@H]2O[C@H](C)[C@@H](O)[C@H](N)[C@@H]2O)C[C@@H]2O[C@](O)(C[C@@H](O)C[C@@H](O)[C@H](O)CC[C@@H](O)C[C@@H](O)CC(=O)O[C@H]1C)C[C@H](O)[C@H]2C(=O)O` [Amphotericin B], the Splenocyte viability (splenocytes [6]) was “no loss of splenocyte viability”, the EC50 [1, 7] was 90 ± 30 nM and the EC50 ([1]; Leishmania donovani, ex vivo model, amphotericin B present in the library (in DMSO vehicle), read-out: EC50) was 10700 ± 900 nM. For the same compound, the “Parasite counts, Treated (AMB)” value (Leishmania donovani; 3,125 cells per well) was 0.1±0.1 photons/sec, the “Reduction in parasite burden” value (Leishmania donovani; 3,125 cells per well) was 83.5% and the “Parasite counts, Treated (AMB)” value (Leishmania donovani; 6,250 cells per well) was 0.2±0.0 photons/sec. For the same compound, the “Reduction in parasite burden” value (Leishmania donovani; 6,250 cells per well) was 86.3%, the “Parasite counts, Treated (AMB)” value (Leishmania donovani; 12,500 cells per well) was 0.4±0.3 photons/sec and the “Reduction in parasite burden” value (Leishmania donovani; 12,500 cells per well) was 86.2%. The “Parasite counts, Treated (AMB)” value (Leishmania donovani; 25,000 cells per well) was 0.7±0.0 photons/sec, the “Reduction in parasite burden” value (Leishmania donovani; 25,000 cells per well) was 86.4% and the “Parasite counts, Treated (AMB)” value (Leishmania donovani; 50,000 cells per well) was 2.5±0.5 photons/sec. For the same compound, the “Reduction in parasite burden” value (Leishmania donovani; 50,000 cells per well) was 82.3%, the “Parasite counts, Treated (AMB)” value (Leishmania donovani; 100,000 cells per well) was 8.5±0.2 photons/sec and the “Reduction in parasite burden” value (Leishmania donovani; 100,000 cells per well) was 83.3%. For the same compound, the “Parasite counts, Treated (AMB)” value (Leishmania donovani; 200,000 cells per well) was 34.8±3.7 photons/sec, the “Reduction in parasite burden” value (Leishmania donovani; 200,000 cells per well) was 76.0% and the EC50 [2, 8] was 110 ± 10 nM. It also gave a CC50 at 24 h [4] of 104000 nM.

For `OC(Cn1cncn1)(Cn1cncn1)c1ccc(F)cc1F` [Fluconazole], the EC50 [1, 7] was > 250000 nM, the “Activity in the ex vivo system (screen or EC50 determination)” value ([1]; transgenic L. donovani, ex vivo system) was “no activity” and the EC50 [2, 8] was > 250000 nM. The “Outcome … (significant Z score / hit)” value [3] was “did not show a significant Z score”.

With `CCCCCCCCCCCCCCCCOP(=O)([O-])OCC[N+](C)(C)C` [Miltefosine] the EC50 [1, 7] was 1020 ± 80 nM, the EC50 ([1]; Leishmania donovani, ex vivo model, freshly solubilized compound from commercial source, read-out: EC50) was 1000 nM and the “Anti-leishmanial activity, repeated testing” value ([1]; compound from the NCI chemical library) was “inactive”. The EC50 [2, 8] was 2280 ± 210 nM and the “Outcome … (significant Z score / hit)” value [3] was “did not show a significant Z score”.

Meglumine antimoniate gave an EC50 ([1]; 48 h of culture, luminometry, purchased compounds dissolved in DMSO, read-out: Ex vivo model EC50 (mean±SE)) of 270000 ± 57500 nM and an EC50 ([2]; hamster peritoneal macrophages infected in vitro, luminometry, purchased compounds) of 146000 ± 42000 nM.

For `CC[C@@]1([C@@H]2O[C@@H]([C@H]3O[C@@](O)(CO)[C@H](C)C[C@@H]3C)C[C@@H]2C)CC[C@H]([C@]2(C)CC[C@]3(C[C@H](O)[C@@H](C)[C@@H]([C@@H](C)[C@@H](OC)[C@H](C)C(=O)O)O3)O2)O1` [Monensin A], the EC50 [1, 7] was 850 ± 680 nM and the EC50 [2, 8] was 230 ± 150 nM.
